Assay: Stability of chlorhexidine in simplified formulations by HPLC-UV after storage at 60°C
Type: physicochemical
Conditions: result in words; formulations with arginine versus without, 60°C for 42 days
Procedure: The following simplified formulations were used for these studies: […]
The stability of the formulations was measured by HPLC-UV after storage at 60°C for 42 days. The formulations were stored in PET bottles with PP caps.
Compositions 1-4 include arginine as a stabilising agent. […] In particular, compositions 1-4 and compositions 5-7 differ only in the presence or absence of arginine.

N=C(N)NCCCC(N)C(=O)O (stereo not shown) [arginine, 2-amino-5-guanidinopentanoic acid]
stability of the chlorhexidine: improved the stability
